Reference: ChEMBL document CHEMBL1125022, “Chiral modifications of dolastatin 10: the potent cytostatic peptide (19aR)-isodolastatin 10” (1990)
Values after ≈ are worked out from the molar mass of the structure shown.

Each molecule was assayed on P388 (assay: Effect against cell growth of the P388 lymphocytic leukemia (PS system)). Conditions: Mus musculus, read-out: ED50 (the source's name).
Format: functional

Compared with `CCC(C)[C@H]([C@H](CC(=O)N1CCC[C@H]1[C@H](OC)[C@@H](C)C(=O)N[C@@H](Cc1ccccc1)c1nccs1)OC)N(C)C(=O)[C@@H](NC(=O)[C@H](C(C)C)N(C)C)C(C)C` (some centres undefined), `CC[C@@H](C)[C@H]([C@@H](CC(=O)N1CCC[C@H]1[C@H](OC)[C@H](C)C(=O)N[C@@H](Cc1ccccc1)c1nccs1)OC)N(C)C(=O)[C@@H](NC(=O)[C@H](C(C)C)N(C)C)C(C)C` is higher in EC50: 3.2 ng/mL (≈ 4.08 nM) for the first, > 1000 ng/mL for the second.

Going from `CC[C@@H](C)[C@@H]([C@@H](CC(=O)N1CCC[C@H]1[C@@H](OC)[C@H](C)C(=O)N[C@@H](Cc1ccccc1)c1nccs1)OC)N(C)C(=O)[C@@H](NC(=O)[C@H](C(C)C)N(C)C)C(C)C` to `CCC(C)[C@H]([C@@H](CC(=O)N1CCC[C@H]1[C@H](OC)[C@H](C)C(=O)N[C@@H](Cc1ccccc1)c1nccs1)OC)N(C)C(=O)[C@@H](NC(=O)[C@H](C(C)C)N(C)C)C(C)C` (some centres undefined), the EC50 rises from 39 ng/mL (≈ 49.7 nM) to > 1000 ng/mL.

First: CC[C@@H](C)[C@H]([C@H](CC(=O)N1CCC[C@H]1[C@H](OC)[C@@H](C)C(=O)N[C@@H](Cc1ccccc1)c1nccs1)OC)N(C)C(=O)[C@@H](NC(=O)[C@H](C(C)C)N(C)C)C(C)C
Second: CC[C@@H](C)[C@H]([C@H](CC(=O)N1CCC[C@H]1[C@H](OC)[C@H](C)C(=O)N[C@@H](Cc1ccccc1)c1nccs1)OC)N(C)C(=O)[C@@H](NC(=O)[C@H](C(C)C)N(C)C)C(C)C
The EC50 of the first is 47-fold lower: 3.2 ng/mL (≈ 4.08 nM) for the first, 150 ng/mL (≈ 191 nM) for the second.

Going from `CC[C@@H](C)[C@@H]([C@@H](CC(=O)N1CCC[C@H]1[C@H](OC)[C@@H](C)C(=O)N[C@@H](Cc1ccccc1)c1nccs1)OC)N(C)C(=O)[C@@H](NC(=O)[C@H](C(C)C)N(C)C)C(C)C` to `CCC(C)[C@@H]([C@H](CC(=O)N1CCC[C@H]1[C@H](OC)[C@H](C)C(=O)N[C@@H](Cc1ccccc1)c1nccs1)OC)N(C)C(=O)[C@@H](NC(=O)[C@H](C(C)C)N(C)C)C(C)C` (some centres undefined), the EC50 rises from 0.049 ng/mL (≈ 0.0624 nM) to 620 ng/mL (≈ 790 nM) (13000-fold).

Compared with `CC[C@@H](C)[C@H]([C@H](CC(=O)N1CCC[C@H]1[C@@H](OC)[C@H](C)C(=O)N[C@@H](Cc1ccccc1)c1nccs1)OC)N(C)C(=O)[C@@H](NC(=O)[C@H](C(C)C)N(C)C)C(C)C`, `CC[C@@H](C)[C@@H]([C@@H](CC(=O)N1CCC[C@H]1[C@@H](OC)[C@@H](C)C(=O)N[C@@H](Cc1ccccc1)c1nccs1)OC)N(C)C(=O)[C@@H](NC(=O)[C@H](C(C)C)N(C)C)C(C)C` is 160-fold lower in EC50: 630 ng/mL (≈ 802 nM) for the first, 3.9 ng/mL (≈ 4.97 nM) for the second.

Compared with `CC[C@H](C)[C@@H]([C@@H](CC(=O)N1CCC[C@H]1[C@H](OC)[C@@H](C)C(=O)N[C@@H](Cc1ccccc1)c1nccs1)OC)N(C)C(=O)[C@@H](NC(=O)[C@H](C(C)C)N(C)C)C(C)C` [DOLASTATIN-10], `CC[C@@H](C)[C@H]([C@H](CC(=O)N1CCC[C@H]1[C@@H](OC)[C@@H](C)C(=O)N[C@@H](Cc1ccccc1)c1nccs1)OC)N(C)C(=O)[C@@H](NC(=O)[C@H](C(C)C)N(C)C)C(C)C` is 200-fold higher in EC50: 1 ng/mL (≈ 1.27 nM) for the first, 200 ng/mL (≈ 255 nM) for the second.

First: CC[C@@H](C)[C@@H]([C@H](CC(=O)N1CCC[C@H]1[C@H](OC)[C@H](C)C(=O)N[C@@H](Cc1ccccc1)c1nccs1)OC)N(C)C(=O)[C@@H](NC(=O)[C@H](C(C)C)N(C)C)C(C)C
Second: CCC(C)[C@@H]([C@@H](CC(=O)N1CCC[C@H]1[C@H](OC)[C@H](C)C(=O)N[C@@H](Cc1ccccc1)c1nccs1)OC)N(C)C(=O)[C@@H](NC(=O)[C@H](C(C)C)N(C)C)C(C)C (some centres undefined)
The EC50 of the first is 260-fold higher: 410 ng/mL (≈ 522 nM) for the first, 1.6 ng/mL (≈ 2.04 nM) for the second.

Going from `CC[C@@H](C)[C@@H]([C@H](CC(=O)N1CCC[C@H]1[C@H](OC)[C@@H](C)C(=O)N[C@@H](Cc1ccccc1)c1nccs1)OC)N(C)C(=O)[C@@H](NC(=O)[C@H](C(C)C)N(C)C)C(C)C` to `CC[C@@H](C)[C@@H]([C@@H](CC(=O)N1CCC[C@H]1[C@H](OC)[C@H](C)C(=O)N[C@@H](Cc1ccccc1)c1nccs1)OC)N(C)C(=O)[C@@H](NC(=O)[C@H](C(C)C)N(C)C)C(C)C`, the EC50 falls from 600 ng/mL (≈ 764 nM) to 5.6 ng/mL (≈ 7.13 nM) (110-fold).

First: CCC(C)[C@H]([C@H](CC(=O)N1CCC[C@H]1[C@H](OC)[C@H](C)C(=O)N[C@@H](Cc1ccccc1)c1nccs1)OC)N(C)C(=O)[C@@H](NC(=O)[C@H](C(C)C)N(C)C)C(C)C (some centres undefined)
Second: CC[C@@H](C)[C@H]([C@@H](CC(=O)N1CCC[C@H]1[C@@H](OC)[C@H](C)C(=O)N[C@@H](Cc1ccccc1)c1nccs1)OC)N(C)C(=O)[C@@H](NC(=O)[C@H](C(C)C)N(C)C)C(C)C
The EC50 of the first is lower: 270 ng/mL (≈ 344 nM) for the first, > 1000 ng/mL for the second.

`CC[C@@H](C)[C@@H]([C@H](CC(=O)N1CCC[C@H]1[C@@H](OC)[C@H](C)C(=O)N[C@@H](Cc1ccccc1)c1nccs1)OC)N(C)C(=O)[C@@H](NC(=O)[C@H](C(C)C)N(C)C)C(C)C` was tested, and the EC50 was > 1000 ng/mL.
